Reference: patent EP4623928A1, “GLP-1R ANTAGONISTS FOR THE TREATMENT OF CANCER” (Fiorina, Paolo, priority 2024, dated 2025)

Key:
[1] = test system: mitogen-stimulated murine splenocytes; assay: IFN-γ ELISpot assay on anti-CD3/anti-CD28 stimulated splenocytes; type: cell-based, C57BL/6 mice; details: Exe-4 at 0.1, 1 or 10 nM, soluble anti-CD3 and anti-CD28, 24 hours
Method: An ELISPOT assay was used to measure the number of IFN-γ-producing cells according to the manufacturer's protocol (BD Biosciences) as previously performed by our group (39). To test the role of GLP-1R-driven immunity on the anti-CD3/28 non-autoimmune specific response, 1×10^6 splenocytes isolated from C57BL/6 mice were cultured in a microwell plate (BD Biosciences) coated with IFN-y capture antibody (Ab) in the presence of the following soluble anti-CD3 and anti-CD28 at 0,5ug/ml for 24 hours. Exe-4 and/or Exe-4+Exe-9-39 at concentrations of 0.1, 1 or 10 nM were added to the culture. After 24 hours, bound secondary Ab was visualized using HRP-streptavidin and the AEC substrate kit (BD Biosciences). Spots were counted using an Immunospot analyzer (Cellular Technology Ltd., Cleveland, OH) and expressed as the number of cytokine-producing spots per 1×10^6 cells. After 24hours, ELISpot plates were developed and acquired on an ELISpot reader, as previously described.

[2] = test system: CD4^+ and CD8^+ T cells; assay: Cell death and proliferation of CD4+ and CD8+ T cells in splenocytes activated with anti-CD3/anti-CD28 (FACS); type: cell-based, C57BL/6 mice; details: anti-CD3/anti-CD28 activated splenocytes
[3] = test system: GLP-1R^pos and GLP-1R^neg CD3^+ T cells; assay: Seahorse bioenergetic analysis, GLP-1Rpos and GLP-1Rneg CD3+ T cells; type: cell-based, C57BL/6 mice; details: GLP-1R^pos CD3^+ T cells, Exe-4 (1 nM)
Method: Cellular Bioenergetics were analyzed using the Seahorse Extracellular Flux Analyzer Xfe96 (Agilent Technologies, Santa Clara, CA, United States), which simultaneously measures Oxygen Consumption Rate (OCR, pmolO2/min), ExtraCellular Acidification Rate (ECAR, mpH/min) and Proton Efflux Rate (PER, pmolH^+/min). For Seahorse experiments 150.000 cells either freshly isolated GLP-1R^pos or GLP-1R^neg CD3^+ T cells or activated with soluble anti-CD3/CD28 at 0.5 µg/ml each in the presence or not of Exe-4 (1 nM); in another setting untransduced mock CD3^+ T cells or pmY-GLP-1R CD3^+ T cells already activated with soluble anti-CD3/CD28 at 0.5 µg/ml each in the presence or not of Exe-4 (1 nM). Cells were resuspended in 50 µL assay medium (Agilent #103576-100 RPMI Medium pH7.4, supplemented with 10mM glucose, 2mM glutamine and 1mM Na-pyruvate) were seeded in each CellTak-precoated well of an Agilent Xfe96 Pro well plate. The cell plate was centrifuged 2 times at 40 × g (zero braking) for 1 minute. After centrifugation, 150 µL warm assay medium was gently added to each well. […]
Seahorse parameters were normalized to cell number in each well. To this purpose, at the end of the Seahorse analysis, cell nuclei were stained with Hoechst 33342 (1 µg/mL) for about 15 min, imaged and counted with Operetta CLS™ software Harmony, as previously described (43). […]

[4] = test system: islet allografts; assay: Murine islet allotransplantation (BALB/c islets into STZ-treated C57BL/6 mice); type: in vivo
Method: Pancreatic islets from BALB/c mice were isolated by collagenase digestion and density gradient separation as previously described (33, 34). Subsequently, four to five hundred islets were inoculated under the renal capsule of each C57BL/6 recipient rendered diabetic with streptozotocin (STZ) (200 mg/kg, administered i.p. Sigma-Aldrich). Islet transplantation success was confirmed by glycaemia normalization. Rejection of islet allografts was defined as blood glucose levels >250 mg/dl for at least 2 consecutive days (35). Treatment modalities were the following: transplanted mice were intraperitoneally injected according to the following protocols: 1) Exendin-4 (Exe-4) (Amylin Pharmaceuticals, San Diego, CA -USA) 0.2pg twice/day for two weeks after transplant; 2) Exe-4 0.2pg twice/day from the day before until two weeks after transplant; 3) Exendin-4 2µg twice/day from the day before until two weeks after transplant; 4) Exendin-4 2µg twice/day + Exendin-9-39 (Exe-9) (Sigma-Aldrich) 2µg twice/day from the day before until two weeks after transplant; 5) Exendin-4 2µg twice/day from the day before until two weeks after transplant + Rapamycin 0.1mg/die for two weeks; 6) saline 0.5ml twice/day for two weeks. The follow-up of the transplanted mice was for 100 days.

## Exendin-4 [Exe-4]
[1]
  number of IFN-y producing cells: significantly reduced
[2]; Exe-4 alone (1 nM)
  cell death of CD4^+ and CD8^+ T cells: significant increase
[2]; Exe-4 alone
  proliferation of CD4^+ and CD8^+ T cells: no effect
[3]
  mitochondrial ATP production: no effect
  mitochondrial respiration (OCR values, maximal OXPHOS): slightly increased
[4]; high doses of Exe-4 preceded by a pre-treatment
  recipients with prolongation of islet survival up to 100 days: 60%
[4]; high doses of Exe-4 preceded by a pre-treatment (2µg twice/day, i.p.), p<0.001 vs untreated
  [MST] (islet allograft survival): 67 days
[4]; islet allograft at day 14, Exe-4-treated mice
  graft infiltration (Hematoxylin and eosin staining): decreased graft infiltration
[4]; low dose of Exe-4
  recipients with prolongation of islet survival up to 100 days: 20%
[4]; low dose of Exe-4 (b66 prints 0.2pg twice/day, i.p.), untreated [MST]=12 days, p=0.001
  [MST] (islet allograft survival): 41 days
[4]; splenic, Exe-4 treatment
  CD8^+ effector memory cells: reduction
  Treg lymphocytes: significant increase
